Tests used:
[1] = target: EGFR WT (Homo sapiens, UniProt P00533); assay: TR-FRET inhibition of kinase activity of wild type EGFR; format: biochemical
Source text: Determination of the Inhibitory Effect of the Compound of the Present Invention on the Kinase Activity of Wild Type EGFR
Experimental objective: The objective of this test example is to determine the inhibitory effect of the compound on the kinase activity of wild type EGFR.
(§1) Experimental process: The experiment applied the TR-FRET (time-resolved fluorescence resonance energy transfer) method to study the inhibitory effect of the compound on the kinase activity of wild type EGFR. The experiment was carried out in a 384-well plate. Experimental buffer (50 mM HEPES, 1 mM EGTA, 10 mM MgCl2, 2 mM DTT, 0.01% Tween-20) was formulated. The compound was diluted in gradient to different concentrations with the experimental buffer. 2 μL of the solution was added to each well of the 384-well plate. 4 μL of diluted EGFR kinase solution (0.001-0.5 nM) was added, and the plate was incubated at room temperature for 10 minutes. 4 μL of ULight-poly GT/ATP mixed solution was added, and the plate was incubated at room temperature for 30 to 60 minutes. 5 μL of EDTA stop solution and 5 μL of Eu-labeled antibody detection solution were added, and the plate was incubated at room temperature for 1 hour.
(§2) Experimental Data Processing Method:
(§3) The concentration and inhibition rate were fitted to a nonlinear regression curve by Graphpad Prism software to obtain the IC50 value.

[2] = target: EGFR D770_N771insNPG (Homo sapiens, UniProt P00533, INS770NPG); assay: TR-FRET inhibition of kinase activity of EGFR exon 20 insertion mutation; format: biochemical
Source text: Determination of the Inhibitory Effect of the Compound of the Present Invention on the Kinase Activity of EGFR Exon 20 Insertion Mutation
Experimental objective: The objective of this test example is to determine the inhibitory effect of the compound on the kinase activity of EGFR exon 20 insertion mutation.
as §1, with “of EGFR exon 20 insertion mutation.” for “of wild type EGFR.”, “buffer. 2.5” for “buffer. 2”, “plate. 2.5” for “plate. 4”, “minutes. 5” for “minutes. 4”
as §2, §3

[3] = target: Ba/F3 EGFR-D770-N771ins_SVD (Homo sapiens, UniProt P00533, DUP768-770, cells depend on it); assay: Proliferation of Ba/F3 EGFR mutant cell line (CellTiter-Glo); format: cell-based, mouse; conditions: 72 h to 144 h, read-out: Ba/F3 EGFR-D770-N771ins_SVD IC50
Description: Determination of the Inhibitory Effect of the Compound of the Present Invention on the Proliferation of Ba/F3 EGFR Mutant Cell Line and A431 Cell Line
(§4) Experimental objective: The objective of this test example is to determine the inhibitory effect of the compound on the proliferation of Ba/F3 EGFR mutant cell line and A431 cell line
(§5) Experimental instruments: Microplate reader (BioTek Synergy H1), pipette (Eppendorf & Rainin).
Ba/F3 EGFR mutant cells were cultured, and harvested after reaching a suitable density. The cells were adjusted to an appropriate cell concentration with the complete medium. The cell suspension were spread on a 96-well plate (90 μL per well), and the plate was placed in a 37° C., 5% CO2 incubator overnight to let the cells adhere to the wall. Solutions of the compound at different concentrations were formulated with DMSO and culture medium. Solvent control was set. […] CellTiter-Glo solution was added and mixed well by shaking, and the plate was incubated in the dark for 10 minutes. The values were measured by BioTek Synergy H1 microplate reader.
as §2
(§6) The inhibition rate was calculated using the […] signal value. The concentration and inhibition rate were fitted to a nonlinear regression curve by Graphpad Prism software to obtain the IC50 value.

[4] = tested on: A431 cell line; assay: Proliferation of A431 cell line (CellTiter-Glo); format: cell-based; conditions: Homo sapiens, A-431, 72 h
Description: Test Example 3. Determination of the Inhibitory Effect of the Compound of the Present Invention on the Proliferation of Ba/F3 EGFR Mutant Cell Line and A431 Cell Line
as §4, §5
A431 cells were cultured, and harvested after reaching a suitable density. The cells were adjusted to an appropriate cell concentration with the complete medium. The cell suspension were spread on a 96-well plate (90 μL per well), and the plate was placed in a 37° C., 5% CO2 incubator overnight to let the cells adhere to the wall. Solutions of the compound at different concentrations were formulated with DMSO and culture medium. Solvent control was set. The solution of the compound was added to the 96-well plate ([…]), and the plate was incubated in the 37° C., 5% CO2 incubator for 72 h. CellTiter-Glo solution was added and mixed well by shaking, and the plate was incubated in the dark for 10 minutes. The values were measured by BioTek Synergy H1 microplate reader.
as §2, §6

Chain of EGFR D770_N771insNPG (P00533 with tags, fused parts or gaps INS770NPG limits assumed): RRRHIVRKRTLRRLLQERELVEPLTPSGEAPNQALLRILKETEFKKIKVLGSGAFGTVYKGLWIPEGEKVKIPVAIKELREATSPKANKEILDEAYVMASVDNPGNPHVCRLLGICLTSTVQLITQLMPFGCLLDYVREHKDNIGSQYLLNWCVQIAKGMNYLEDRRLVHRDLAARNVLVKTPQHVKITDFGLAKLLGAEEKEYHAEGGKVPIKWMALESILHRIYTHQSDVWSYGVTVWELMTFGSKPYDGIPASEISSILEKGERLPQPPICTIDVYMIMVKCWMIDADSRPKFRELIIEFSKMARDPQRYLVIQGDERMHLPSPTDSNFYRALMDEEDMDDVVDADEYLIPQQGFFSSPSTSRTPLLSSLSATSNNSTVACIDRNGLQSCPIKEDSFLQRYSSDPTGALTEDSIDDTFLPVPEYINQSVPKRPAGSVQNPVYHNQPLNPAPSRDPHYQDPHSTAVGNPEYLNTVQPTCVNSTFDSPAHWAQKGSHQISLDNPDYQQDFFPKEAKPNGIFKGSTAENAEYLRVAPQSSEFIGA
Chain of Ba/F3 EGFR-D770-N771ins_SVD (P00533 with tags, fused parts or gaps DUP768-770): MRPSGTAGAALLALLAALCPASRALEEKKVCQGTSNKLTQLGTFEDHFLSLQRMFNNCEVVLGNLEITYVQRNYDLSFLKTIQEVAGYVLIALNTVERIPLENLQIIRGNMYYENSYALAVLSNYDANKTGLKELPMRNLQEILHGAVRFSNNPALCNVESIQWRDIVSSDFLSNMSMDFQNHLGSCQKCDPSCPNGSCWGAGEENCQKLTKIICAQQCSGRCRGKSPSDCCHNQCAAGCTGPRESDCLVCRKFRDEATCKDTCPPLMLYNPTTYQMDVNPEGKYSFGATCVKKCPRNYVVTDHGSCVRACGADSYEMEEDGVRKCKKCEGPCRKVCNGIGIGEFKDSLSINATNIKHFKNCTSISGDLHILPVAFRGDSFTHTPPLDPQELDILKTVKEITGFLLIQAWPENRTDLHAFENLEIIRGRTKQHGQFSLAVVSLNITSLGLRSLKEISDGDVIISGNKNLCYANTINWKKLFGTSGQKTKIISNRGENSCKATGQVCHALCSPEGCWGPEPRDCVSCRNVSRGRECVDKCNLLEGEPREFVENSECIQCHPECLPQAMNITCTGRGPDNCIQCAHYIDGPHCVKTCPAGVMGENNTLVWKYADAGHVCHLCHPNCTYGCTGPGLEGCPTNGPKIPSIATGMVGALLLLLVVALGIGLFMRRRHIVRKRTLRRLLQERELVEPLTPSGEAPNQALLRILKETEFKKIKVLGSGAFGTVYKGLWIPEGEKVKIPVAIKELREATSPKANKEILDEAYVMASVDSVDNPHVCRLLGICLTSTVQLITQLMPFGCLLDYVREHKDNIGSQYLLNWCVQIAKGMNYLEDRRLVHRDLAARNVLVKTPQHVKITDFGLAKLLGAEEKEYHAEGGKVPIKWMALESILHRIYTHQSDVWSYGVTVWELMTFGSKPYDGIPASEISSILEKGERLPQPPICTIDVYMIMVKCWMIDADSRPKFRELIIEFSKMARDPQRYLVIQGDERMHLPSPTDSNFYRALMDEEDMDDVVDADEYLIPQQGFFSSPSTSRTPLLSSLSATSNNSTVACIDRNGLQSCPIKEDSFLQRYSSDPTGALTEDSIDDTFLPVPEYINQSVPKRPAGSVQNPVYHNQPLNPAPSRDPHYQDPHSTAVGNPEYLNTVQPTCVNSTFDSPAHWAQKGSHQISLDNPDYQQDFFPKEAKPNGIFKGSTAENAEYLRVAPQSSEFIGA
Chain of EGFR WT (P00533 25-1210): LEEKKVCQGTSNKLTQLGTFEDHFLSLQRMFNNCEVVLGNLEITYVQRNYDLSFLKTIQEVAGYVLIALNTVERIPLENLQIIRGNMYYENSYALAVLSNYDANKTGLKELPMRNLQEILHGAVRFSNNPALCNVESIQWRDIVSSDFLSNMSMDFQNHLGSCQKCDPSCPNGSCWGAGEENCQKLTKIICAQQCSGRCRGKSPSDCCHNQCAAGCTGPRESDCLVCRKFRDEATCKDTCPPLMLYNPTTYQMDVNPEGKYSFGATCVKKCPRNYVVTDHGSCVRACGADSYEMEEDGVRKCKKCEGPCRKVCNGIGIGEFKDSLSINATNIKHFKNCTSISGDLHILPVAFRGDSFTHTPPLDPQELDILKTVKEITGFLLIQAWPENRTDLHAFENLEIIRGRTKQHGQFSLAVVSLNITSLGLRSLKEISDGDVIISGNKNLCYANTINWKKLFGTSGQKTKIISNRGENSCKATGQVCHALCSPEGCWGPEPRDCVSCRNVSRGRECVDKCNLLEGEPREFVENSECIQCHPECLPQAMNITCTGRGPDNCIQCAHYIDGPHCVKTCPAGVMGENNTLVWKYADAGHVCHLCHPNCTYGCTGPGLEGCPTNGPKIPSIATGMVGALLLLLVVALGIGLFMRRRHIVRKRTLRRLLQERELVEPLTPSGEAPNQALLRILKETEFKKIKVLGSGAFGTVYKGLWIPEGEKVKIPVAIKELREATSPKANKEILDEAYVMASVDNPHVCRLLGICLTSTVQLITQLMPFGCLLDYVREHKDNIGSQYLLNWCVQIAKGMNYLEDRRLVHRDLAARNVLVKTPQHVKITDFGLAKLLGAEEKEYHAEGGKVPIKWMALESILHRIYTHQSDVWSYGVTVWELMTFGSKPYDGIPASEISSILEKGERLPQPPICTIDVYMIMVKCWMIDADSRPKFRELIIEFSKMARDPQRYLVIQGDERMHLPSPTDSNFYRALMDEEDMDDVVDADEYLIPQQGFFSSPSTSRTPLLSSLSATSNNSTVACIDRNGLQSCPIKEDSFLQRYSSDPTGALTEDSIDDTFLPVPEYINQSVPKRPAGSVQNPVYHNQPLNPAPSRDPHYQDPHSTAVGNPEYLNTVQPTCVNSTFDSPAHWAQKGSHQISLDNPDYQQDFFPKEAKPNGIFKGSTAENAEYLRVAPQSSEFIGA

SMILES	IC50 [1] [nM]	further results
C=CC(=O)Nc1cc(Nc2ncc(C(=O)OC)c(-c3cn(C)c4ccccc34)n2)c(OC)cc1N1C[C@@H]2C[C@H]1CN2C [Example 25, Methyl 2-((5-acrylamido-2-methoxy-4-((1S,4S)-5-methyl-2,5-diazabicyclo[2.2.1]heptan-2-yl)phenyl)amino)-4-(1-methyl-1H-indol-3-yl)pyrimidine-5-carboxylate]	89.8	–
C=CC(=O)Nc1cc(Nc2ncc(C(F)(F)F)c(-c3cn(C4CC4)c4ccccc34)n2)c(OC)cc1N1C[C@H]2CN(C)C[C@H]2C1 [Example 27, N-(5-((4-(1-Cyclopropyl-1H-indol-3-yl)-5-(trifluoromethyl)pyrimidin-2-yl)amino)-4-methoxy-2-((3aR,6aS)-5-methylhexahydropyrrolo[3,4-c]pyrrol-2(1H)-yl)phenyl)acrylamide]	121	–
C=CC(=O)Nc1cc(Nc2ncc(Br)c(-c3cn(C4CC4)c4ccccc34)n2)c(OC)cc1N1C[C@H]2CN(C)C[C@H]2C1 [Example 28, N-(5-((5-Bromo-4-(1-cyclopropyl-1H-indol-3-yl)pyrimidin-2-yl)amino)-4-methoxy-2-((3aR,6aS)-5-methylhexahydropyrrolo[3,4-c]pyrrol-2(1H)-yl)phenyl)acrylamide]	63.3	–
CC#CC(=O)Nc1cc(Nc2ncc(C(F)(F)F)c(-c3cn(C4CC4)c4ccccc34)n2)c(OC)cc1N1C[C@H]2CN(C)C[C@H]2C1 [Example 30, N-(5-((4-(1-Cyclopropyl-1H-indol-3-yl)-5-(trifluoromethyl)pyrimidin-2-yl)amino)-4-methoxy-2-((3aR,6aS)-5-methylhexahydropyrrolo[3,4-c]pyrrol-2(1H)-yl)phenyl)but-2-ynamide]	453	–
C=CC(=O)Nc1cc(Nc2ncc(C(=O)N(C)C)c(-c3cn(C)c4ccccc34)n2)c(OC)cc1N1C[C@H]2CN(C)C[C@H]2C1 [Example 31, 2-((5-Acrylamido-2-methoxy-4-((3aR,6aS)-5-methylhexahydropyrrolo[3,4-c]pyrrol-2(1H)-yl)phenyl)amino)-N,N-dimethyl-4-(1-methyl-1H-indol-3-yl)pyrimidine-5-carboxamide]	> 1000	–
C=CC(=O)Nc1cc(Nc2ncc(C(=O)NC3CC3)c(-c3cn(C)c4ccccc34)n2)c(OC)cc1N1C[C@H]2CN(C)C[C@H]2C1 [Example 32, 2-((5-Acrylamido-2-methoxy-4-((3aR,6aS)-5-methylhexahydropyrrolo[3,4-c]pyrrol-2(1H)-yl)phenyl)amino)-N-cyclopropyl-4-(1-methyl-1H-indol-3-yl)pyrimidine-5-carboxamide]	82.9	–
C=CC(=O)Nc1cc(Nc2ncc(-c3cccs3)c(-c3cn(C4CC4)c4ccccc34)n2)c(OC)cc1N1C[C@H]2CN(C)C[C@H]2C1 [Example 46, N-(5-((4-(1-Cyclopropyl-1H-indol-3-yl)-5-(thiophen-2-yl)pyrimidin-2-yl)amino)-4-methoxy-2-((3aR,6aS)-5-methylhexahydropyrrolo[3,4-c]pyrrol-2(1H)-yl)phenyl)acrylamide]	72.7	–
C=C(F)C(=O)Nc1cc(Nc2ncc(-c3ncco3)c(-c3cn(C4CC4)c4ccccc34)n2)c(OC)cc1N1CC(N(C)C)C1 [Example 66, N-(5-((4-(1-Cyclopropyl-1H-indol-3-yl)-5-(oxazol-2-yl)pyrimidin-2-yl)amino)-2-(3-(dimethylamino)azetidin-1-yl)-4-methoxyphenyl)-2-fluoroacrylamide]	50.8	–
C=CC(=O)Nc1cc(Nc2ncc(C#N)c(-c3cn(C4CC4)c4ccc(OC)cc34)n2)c(OC)cc1N(C)CCN(C)C [Example 118, N-(5-((5-Cyano-4-(1-cyclopropyl-5-methoxy-1H-indol-3-yl)pyrimidin-2-yl)amino)-2-((2-(dimethylamino)ethyl)(methyl)amino)-4-methoxyphenyl)acrylamide]	–	IC50 [2]: 0.55 nM; GI50 [3]: 45.1 nM; IC50 [4]: 201 nM
C=CC(=O)Nc1cc(Nc2ncc(C#N)c(-c3cn(C4CC4)c4cc(OC)c(F)cc34)n2)c(OC)cc1N(C)CCN(C)C [Example 127, N-(5-((5-Cyano-4-(1-cyclopropyl-5-fluoro-6-methoxy-1H-indol-3-yl)pyrimidin-2-yl)amino)-2-((2-(dimethylamino)ethyl)(methyl)amino)-4-methoxyphenyl)acrylamide]	–	IC50 [2]: 0.18 nM; GI50 [3]: 13.4 nM; IC50 [4]: 46.6 nM
C=CC(=O)Nc1cc(Nc2ncc(C#N)c(-c3cn(C4COC4)c4cc(OC)ccc34)n2)c(OC)cc1N(C)CCN(C)C [Example 137, N-(5-((5-Cyano-4-(6-methoxy-1-(oxetan-3-yl)-1H-indol-3-yl)pyrimidin-2-yl)amino)-2-((2-(dimethylamino)ethyl)(methyl)amino)-4-methoxyphenyl)acrylamide]	–	IC50 [2]: 0.16 nM; GI50 [3]: 9.78 nM; IC50 [4]: 18.2 nM

Continued, in another order:

IC50 [1] [nM]	SMILES	further results
133	C=CC(=O)Nc1cc(Nc2ncc(C(=O)NCc3ccccc3)c(-c3cn(C)c4ccccc34)n2)c(OC)cc1N(C)CCN(C)C [Example 33, 2-((5-Acrylamido-4-((2-(dimethylamino)ethyl)(methyl)amino)-2-methoxyphenyl)amino)-N-benzyl-4-(1-methyl-1H-indol-3-yl)pyrimidine-5-carboxamide]	–
> 1000	C=CC(=O)Nc1cc(Nc2ncc(C#N)c(-c3cn(C4CC4)c4cccc(F)c34)n2)c(OC)cc1N(C)CCN(C)C [Example 120, N-(5-((5-Cyano-4-(1-cyclopropyl-4-fluoro-1H-indol-3-yl)pyrimidin-2-yl)amino)-2-((2-(dimethylamino)ethyl)(methyl)amino)-4-methoxyphenyl)acrylamide]	–
250	C=CC(=O)Nc1cc(Nc2ncc(N=S(C)(C)=O)c(-c3cn(C)c4ccccc34)n2)c(OC)cc1N(C)CCN(C)C [Example 136, N-(5-((5-((Dimethyl(oxo)-λ^6-sulfaneylidene)amino)-4-(1-methyl-1H-indol-3-yl)pyrimidin-2-yl)amino)-2-((2-(dimethylamino)ethyl)(methyl)amino)-4-methoxyphenyl)acrylamide]	–
> 1000	C=CC(=O)Nc1cc(Nc2ncc(C#N)c(-n3nc(C)c4ccccc43)n2)c(OC)cc1N(C)CCN(C)C [Example 138, N-(5-((5-Cyano-4-(3-methyl-1H-indazol-1-yl)pyrimidin-2-yl)amino)-2-((2-(dimethylamino)ethyl)(methyl)amino)-4-methoxyphenyl)acrylamide]	–
133	C=CC(=O)Nc1cc(Nc2ncc(C(=O)NCc3ccc(F)cc3)c(-c3cn(C)c4ccccc34)n2)c(OC)cc1N(C)CCN(C)C [Example 142, 2-((5-Acrylamido-4-((2-(dimethylamino)ethyl)(methyl)amino)-2-methoxyphenyl)amino)-N-(4-fluorobenzyl)-4-(1-methyl-1H-indol-3-yl)pyrimidine-5-carboxamide]	–
